{"source": "patent US12084437B2", "about": "“Halo-substituted piperidines as orexin receptor modulators” (AstraZeneca AB, priority 2016, dated 2024)", "key": {"[1]": {"experiment": "Metabolic stability and intrinsic clearance in rat hepatocytes", "type": "in vitro ADME", "conditions": "cryopreserved rat hepatocytes (suspension), 1 uM compound, 37 C, read-out: rHeps CLint", "experimental": "Stock solutions of compounds and control compounds were prepared in 10 mM in appropriate solvent, such as DMSO. L-15 medium was placed in a 37° C. water bath and allowed to warm for at least 15 minutes prior to use. A quenching plate was prepared by adding 80 μL of acetonitrile to each well of a 96-well plate. In a new 96-well plate, the 10 mM stock solution of test compounds and control compounds were diluted to 100 μM by combining 198 μL of acetonitrile and 2 μL of the 10 mM stock. A vial of cryopreserved rat hepatocytes were removed from storage and maintained at cryogenic temperatures until thawing. The cells were thawed as quickly as possible, in a 37° C. water bath under gentle shaking. The vials were kept in the water bath until all ice crystals have dissolved and are no longer visible. After the thawing was completed, the vials were sprayed with 70% ethanol and transferred to a biosafety cabinet. […]\nCells were then counted with Cellometer® Vision. […] Counted cells were then diluted with incubation medium to a working cell density of 1.0×10^6 viable cells/mL. […]\nAll calculations were carried out using Microsoft Excel. Peak areas were determined from extracted ion chromatograms. in vitro half-life (t½) of parent compound was determined by regression analysis of the Ln percent parent disappearance vs. time curve."}, "[2]": {"experiment": "Metabolic stability and intrinsic clearance in human liver microsomes", "type": "in vitro ADME", "conditions": "pooled human liver microsomes, NADPH, 1 uM compound, 37 C; read-out: hMics CLint", "experimental": "Human Liver Microsomes (HLM) were obtained from BD Gentest UltraPool 150 donor (Lot no. 38289) at a concentration of 20 mg/mL protein. HLMs are stored in a −80° C. freezer. Prior to use, the pooled HLM were removed from the freezer and allowed to thaw in a 37° C. water bath and then stored on wet ice. 100 μmol/L test compound solution and positive control (PC) solutions (phenacetin, verapamil, diclofenac, imiprimine, benzydamine and metoprolol) were prepared by adding 2 μL of 10 mmol/L stock solution in DMSO to 198 μL of acetonitrile. HML mixtures were prepared by adding 1325 μL of 20 mg/mL HLM to 22260 μL of phosphate buffer to obtain the HLM mixture at 1.1236 mg/mL. Prior to testing the compounds, 222.5 μL of 1.1236 mg/mL HLM mixtures and 25 μL of the 10 mM NADPH were mixed in the incubation plates on a whirly mixer for 10 seconds. The incubation plates were pre-warmed at 37° C. for 8 min. […]\nQuantitative LC-MS analysis were carried out with an API 4000 (AB sciex, USA) Ultra mass spectrometer at MRM mode (MS/MS). Peak areas were determined from extracted ion chromatograms. Percent parent remaining was calculated from peak area of test compound or PC. The slope value, k, was determined by linear regression of the natural logarithm of percent parent remaining vs. incubation time curve. […]\nThe in vitro half-life (in vitro t1/2) was determined from the slope value: in vitro t½=−(0.693/k). […]"}}, "data": [{"smiles": "C[C@@H]1CC(F)(F)CN(C(=O)c2nn(C)cc2-c2ccc(Cl)cc2)[C@@H]1CNc1cnc(C(F)(F)F)cn1", "note": "[Compound 129, (4-(4-chlorophenyl)-1-methyl-1H-pyrazol-3-yl)((2S,3R)-5,5-difluoro-3-methyl-2-(((5-(trifluoromethyl)pyrazin-2-yl)amino)methyl)piperidin-1-yl)methanone]", "values": [{"measurement": "hepatocyte CLint at 1 µM", "setting": "[1]", "value": 3.8, "unit": "µL/min/1e6 cells"}, {"measurement": "microsomal CLint at 1 µM", "setting": "[2]", "value": "< 3", "unit": "µL/min/mg"}]}, {"smiles": "Cc1nc(C(=O)N2CC(F)(F)C[C@@H](C)[C@H]2CNc2ccc(C(F)(F)F)cn2)c(-c2ccc(F)cc2)s1", "note": "[Compound 185, ((2S,3R)-5,5-difluoro-3-methyl-2-(((5-(trifluoromethyl)pyridin-2-yl)amino)methyl)piperidin-1-yl)(5-(4-fluorophenyl)-2-methylthiazol-4-yl)methanone]", "values": [{"measurement": "hepatocyte CLint at 1 µM", "setting": "[1]", "value": 107, "unit": "µL/min/1e6 cells"}, {"measurement": "microsomal CLint at 1 µM", "setting": "[2]", "value": 29, "unit": "µL/min/mg"}]}]}
